Test results: patent US20210395256A1, “TYROSINE KINASE INHIBITORS, COMPOSITIONS AND METHODS THERE OF” (Betta Pharmaceuticals Co., Ltd., priority 2018, published 2021)
Where two headings read alike, the source gives them in different places.

Molecular target: TrkA kinase (Homo sapiens, UniProt P04629)
Assay: TrkA kinase assay (mobility shift assay)
Format: biochemical
Settings: read-out: Trk A Kinase IC50
Protocol: Example 201 TrkA Kinase Assay
Mobility shift assay was used to determine the inhibitory activity of compounds against TrkA kinase. Assay procedures are as follows:
1× Kinase base buffer (50 mM HEPES, pH 7.5; 0.0015% Brij-35)
Stop buffer (100 mM HEPES, pH 7.5; 0.015% Brij-35; 0.2% Coating Reagent #3; 50 mM EDTA)
1) Dilute the compound to 50× of the final desired highest inhibitor concentration in reaction by 100% DMSO. Transfer 100 μl of this compound dilution to a well in a 96-well plate.
2) For all compounds, transfer the compound in tubes to one well on 96-well storage plate and serially dilute the compound by transferring 30 μl to 60 μl of 100% DMSO in the next well and so forth for a total of 10 concentrations.
3) Add 100 μl of 100% DMSO to two empty wells for no compound control and no enzyme control in the same 96-well plate. Mark the plate as source plate.
4) Prepare intermediate plate
Transfer 10 μl of compound from source plate to a new 96-well plate as the intermediate plate
Add 90 µl of 1× kinase buffer to each well of the intermediate plate.
Mix the compounds in intermediate plate for 10 min on shaker.
1) Transfer 5 μl of each well from the 96-well intermediate plate to a 384-well plate in duplicates. For example, A1 of the 96-well plate is transferred to A1 and A2 of the 384-well plate. A2 of the 96-well plate is transferred to A3 and A4 of the 384-well plate, and so on.
1) Prepare 2.5× enzyme solution
Add kinase in 1× kinase base buffer.
2) Prepare 2.5× peptide solution Add FAM-labeled peptide and ATP in the 1× kinase base buffer.
3) Assay plate already contains 5 μl of compound in 10% DMSO.
4) Transfer 2.5× enzyme solution to the assay plate
Add 10 μl of 2.5× enzyme solution to each well of the 384-well assay plate.
5) Incubate at room temperature for 10 min.
6) Transfer 2.5× peptide solution to the assay plate
Add 10 μl of 2.5× peptide solution to each well of the 384-well assay plate.
Kinase reaction conditions are shown as Table 11:
7) Kinase reaction and stop
Incubate at 28° C. for specified period of time.
Add 25 μl of stop buffer to stop reaction.
1) Copy conversion data from Caliper program.
2) Convert conversion values to inhibition values.
Percent inhibition=(max-conversion)/(max-min)*100.
“max” stands for DMSO control; “min” stands for low control.
3) Fit the data in XLFit excel add-in version 5.4.0.8 to obtain IC50 values.
Equation used is: Y=Bottom+(Top-Bottom)/(1+(IC50/X)^HillSlope)

Chain of TrkA kinase (P04629 33-796): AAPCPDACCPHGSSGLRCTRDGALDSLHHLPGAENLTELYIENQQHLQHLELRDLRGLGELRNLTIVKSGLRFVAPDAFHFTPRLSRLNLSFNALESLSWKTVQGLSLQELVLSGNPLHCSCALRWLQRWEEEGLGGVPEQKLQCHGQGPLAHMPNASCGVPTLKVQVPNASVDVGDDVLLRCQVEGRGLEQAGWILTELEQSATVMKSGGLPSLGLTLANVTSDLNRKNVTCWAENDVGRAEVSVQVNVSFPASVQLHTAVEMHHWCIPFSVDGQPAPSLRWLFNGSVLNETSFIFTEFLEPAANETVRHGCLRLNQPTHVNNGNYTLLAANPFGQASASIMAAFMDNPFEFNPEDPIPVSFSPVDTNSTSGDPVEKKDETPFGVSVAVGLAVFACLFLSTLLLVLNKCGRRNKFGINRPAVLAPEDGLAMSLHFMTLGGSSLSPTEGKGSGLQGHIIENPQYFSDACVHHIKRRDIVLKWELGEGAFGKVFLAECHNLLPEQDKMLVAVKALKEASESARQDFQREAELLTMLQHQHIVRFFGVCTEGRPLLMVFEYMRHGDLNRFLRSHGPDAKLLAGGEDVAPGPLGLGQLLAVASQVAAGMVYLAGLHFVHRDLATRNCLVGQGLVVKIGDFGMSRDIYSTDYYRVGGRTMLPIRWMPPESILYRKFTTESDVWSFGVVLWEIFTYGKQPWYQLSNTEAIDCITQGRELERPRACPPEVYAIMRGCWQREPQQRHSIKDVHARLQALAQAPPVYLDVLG

| Compound | IC50 (class symbols) [nM] | IC50 (numeric values) [nM] |
| --- | --- | --- |
| Fc1ccc(F)c([C@H]2CCCN2c2ccn3ncc(-c4nc5c(s4)CCNC5)c3n2)c1 [Compound 189, (R)-2-(5-(2-(2,5-difluorophenyl)pyrrolidin-1-yl)pyrazolo[1,5-a]pyrimidin-3-yl)-4,5,6,7-tetrahydrothiazolo[4,5-c]pyridine] | ≤ 10 |  |
| Fc1ccc(F)c([C@H]2CCCN2c2ccn3ncc(-c4nc5cc(C(F)(F)F)ncc5[nH]4)c3n2)c1 [Compound 72, (R)-2-(5-(2-(2,5-difluorophenyl)pyrrolidin-1-yl)pyrazolo[1,5-a]pyrimidin-3-yl)-6-(trifluoromethyl)-3H-imidazo[4,5-c]pyridine] |  | 1.4 |
| Fc1ccc(F)c([C@H]2CCCN2c2ccn3ncc(-c4nc5cc6c(cc5[nH]4)OCCCO6)c3n2)c1 [Compound 134, (R)-2-(5-(2-(2,5-difluorophenyl)pyrrolidin-1-yl)pyrazolo[1,5-a]pyrimidin-3-yl)-7,8-dihydro-1H,6H-[1,4]dioxepino[2′,3′:4,5]benzo[1,2-d]imidazole] |  | 1.1 |
| COC(=O)c1cc2oc(-c3cnn4ccc(N5CCC[C@@H]5c5cc(F)ccc5F)nc34)nc2cc1OC [Compound 178, methyl (R)-2-(5-(2-(2,5-difluorophenyl)pyrrolidin-1-yl)pyrazolo[1,5-a]pyrimidin-3-yl)-5-methoxybenzo[d]oxazole-6-carboxylate] | ≤ 10 |  |
| Fc1ccc(F)c([C@H]2CCCN2c2ccn3ncc(-c4nc5cc(F)c(C(F)(F)F)cc5[nH]4)c3n2)c1 [Compound 139, (R)-5-(2-(2,5-difluorophenyl)pyrrolidin-1-yl)-3-(5-fluoro-6-(trifluoromethyl)-1H-benzo[d]imidazol-2-yl)pyrazolo[1,5-a]pyrimidine] | > 50 |  |
| Cc1ccc2nc(-c3cnn4ccc(N5CCC[C@@H]5c5cc(F)ccc5F)nc34)[nH]c2n1 [Compound 106, (R)-2-(5-(2-(2,5-difluorophenyl)pyrrolidin-1-yl)pyrazolo[1,5-a]pyrimidin-3-yl)-5-methyl-3H-imidazo[4,5-b]pyridine] | ≤ 10 |  |
| O=C(O)c1ccc2[nH]c(-c3cnn4ccc(N5CCC[C@@H]5c5cc(F)ccc5F)nc34)cc2c1 [Compound 185, (R)-2-(5-(2-(2,5-difluorophenyl)pyrrolidin-1-yl)pyrazolo[1,5-a]pyrimidin-3-yl)-1H-indole-5-carboxylic acid] | ≤ 10 |  |
| COc1cc2[nH]c(-c3cnn4ccc(N5CCC[C@@H]5c5cc(F)ccc5F)nc34)nc2cc1C(=O)N(C)C [Compound 161, (R)-2-(5-(2-(2,5-difluorophenyl)pyrrolidin-1-yl)pyrazolo[1,5-a]pyrimidin-3-yl)-6-methoxy-N,N-dimethyl-1H-benzo[d]imidazole-5-carboxamide] |  | 0.9 |
| Fc1ccc(F)c([C@H]2CCCN2c2ccn3ncc(-c4nnc(C5CCOCC5)[nH]4)c3n2)c1 [Compound 32, (R)-5-(2-(2,5-difluorophenyl)pyrrolidin-1-yl)-3-(5-(tetrahydro-2H-pyran-4-yl)-4H-1,2,4-triazol-3-yl)pyrazolo[1,5-a]pyrimidine] | 10 to 50 |  |
| Fc1ccc(F)c([C@H]2CCCN2c2ccn3ncc(-c4nnc(-c5ccc6[nH]ccc6c5)[nH]4)c3n2)c1 [Compound 50, (R)-3-(5-(1H-indol-5-yl)-4H-1,2,4-triazol-3-yl)-5-(2-(2,5-difluorophenyl)pyrrolidin-1-yl)pyrazolo[1,5-a]pyrimidine] |  | 2.65 |
| O=C(O)c1cc2[nH]c(-c3cnn4ccc(N5CCC[C@@H]5c5cc(F)ccc5F)nc34)nc2c(F)c1F [Compound 138, (R)-2-(5-(2-(2,5-difluorophenyl)pyrrolidin-1-yl)pyrazolo[1,5-a]pyrimidin-3-yl)-4,5-difluoro-1H-benzo[d]imidazole-6-carboxylic acid] |  | 0.48 |
| OCc1ccc2nc(-c3cnn4ccc(N5CCC[C@@H]5c5cc(F)ccc5F)nc34)oc2c1 [Compound 69, (R)-(2-(5-(2-(2,5-difluorophenyl)pyrrolidin-1-yl)pyrazolo[1,5-a]pyrimidin-3-yl)benzo[d]oxazol-6-yl)methanol] | ≤ 10 |  |
| N#Cc1cc2nc(-c3cnn4ccc(N5CCC[C@@H]5c5cc(F)ccc5F)nc34)[nH]c2cc1N1CCC[C@H]1C#N [Compound 165, 6-((S)-2-cyanopyrrolidin-1-yl)-2-(5-((R)-2-(2,5-difluorophenyl)pyrrolidin-1-yl)pyrazolo[1,5-a]pyrimidin-3-yl)-1H-benzo[d]imidazole-5-carbonitrile] | ≤ 10 |  |

Continued, values first:

| IC50 (class symbols) [nM] | IC50 (numeric values) [nM] | Compound |
| --- | --- | --- |
| 10 to 50 |  | OC1CCc2nc(-c3cnn4ccc(N5CCC[C@@H]5c5cc(F)ccc5F)nc34)nn2C1 (stereo partly drawn) [Compound 132, 2-(5-((R)-2-(2,5-difluorophenyl)pyrrolidin-1-yl)pyrazolo[1,5-a]pyrimidin-3-yl)-5,6,7,8-tetrahydro-[1,2,4]triazolo[1,5-a]pyridin-6-ol] |
| 10 to 50 |  | Cn1c(-c2cnn3ccc(N4CCC[C@@H]4c4cc(F)ccc4F)nc23)nc2cnccc21 [Compound 124, (R)-2-(5-(2-(2,5-difluorophenyl)pyrrolidin-1-yl)pyrazolo[1,5-a]pyrimidin-3-yl)-1-methyl-1H-imidazo[4,5-c]pyridine] |
| 10 to 50 |  | Fc1ccc(F)c([C@H]2CCCN2c2ccn3ncc(-c4nc5c(s4)COCC5)c3n2)c1 [Compound 192, (R)-2-(5-(2-(2,5-difluorophenyl)pyrrolidin-1-yl)pyrazolo[1,5-a]pyrimidin-3-yl)-6,7-dihydro-4H-pyrano[4,3-d]thiazole] |
|  | 6.6 | O[C@H]1CCn2nc(-c3cnn4ccc(N5CCC[C@@H]5c5cc(F)ccc5F)nc34)nc2C1 [Compound 187, (S)-2-(5-((R)-2-(2,5-difluorophenyl)pyrrolidin-1-yl)pyrazolo[1,5-a]pyrimidin-3-yl)-5,6,7,8-tetrahydro-[1,2,4]triazolo[1,5-a]pyridin-7-ol] |
| ≤ 10 |  | N#Cc1cc2nc(-c3cnn4ccc(N5CCC[C@@H]5c5cc(F)ccc5F)nc34)[nH]c2cc1C(=O)O [Compound 153, (R)-5-cyano-2-(5-(2-(2,5-difluorophenyl)pyrrolidin-1-yl)pyrazolo[1,5-a]pyrimidin-3-yl)-1H-benzo[d]imidazole-6-carboxylic acid] |
| ≤ 10 |  | Cc1cc2[nH]c(-c3cnn4ccc(N5CCC[C@@H]5c5cc(F)ccc5F)nc34)nc2cc1C#N [Compound 159, (R)-2-(5-(2-(2,5-difluorophenyl)pyrrolidin-1-yl)pyrazolo[1,5-a]pyrimidin-3-yl)-6-methyl-1H-benzo[d]imidazole-5-carbonitrile] |
| ≤ 10 |  | Fc1ccc(F)c([C@H]2CCCN2c2ccn3ncc(-c4nc5c([nH]4)COCC5)c3n2)c1 [Compound 188, (R)-2-(5-(2-(2,5-difluorophenyl)pyrrolidin-1-yl)pyrazolo[1,5-a]pyrimidin-3-yl)-3,4,6,7-tetrahydropyrano[3,4-d]imidazole] |
| ≤ 10 |  | O=C1NCCOc2cc3[nH]c(-c4cnn5ccc(N6CCC[C@@H]6c6cc(F)ccc6F)nc45)nc3cc21 [Compound 147, (R)-2-(5-(2-(2,5-difluorophenyl)pyrrolidin-1-yl)pyrazolo[1,5-a]pyrimidin-3-yl)-7,8-dihydro-3H-imidazo[4′,5′:4,5]benzo[1,2-f][1,4]oxazepin-9(6H)-one] |
| 10 to 50 |  | N#Cc1cc2nc(-c3cnn4ccc(N5CCC[C@@H]5c5cc(F)ccc5F)nc34)oc2cc1OC(F)(F)F [Compound 176, (R)-2-(5-(2-(2,5-difluorophenyl)pyrrolidin-1-yl)pyrazolo[1,5-a]pyrimidin-3-yl)-6-(trifluoromethoxy)benzo[d]oxazole-5-carbonitrile] |
| ≤ 10 |  | COc1cc2nc(-c3cnn4ccc(N5CCC[C@@H]5c5cc(F)ccc5F)nc34)[nH]c2cc1C(C)O (stereo partly drawn) [Compound 66, 1-(2-(5-((R)-2-(2,5-difluorophenyl)pyrrolidin-1-yl)pyrazolo[1,5-a]pyrimidin-3-yl)-5-methoxy-1H-benzo[d]imidazol-6-yl)ethan-1-ol] |
|  | 2.65 | COC(=O)c1cc2[nH]c(-c3cnn4ccc(N5CCC[C@@H]5c5cc(F)ccc5F)nc34)nc2c(F)c1F [Compound 137, methyl (R)-2-(5-(2-(2,5-difluorophenyl)pyrrolidin-1-yl)pyrazolo[1,5-a]pyrimidin-3-yl)-4,5-difluoro-1H-benzo[d]imidazole-6-carboxylate] |
| 10 to 50 |  | O[C@@H]1C[C@](O)(c2nnc(-c3cnn4ccc(N5CCC[C@@H]5c5cc(F)ccc5F)nc34)[nH]2)C[C@@H](O)[C@H]1O [Compound 60, (1R,2S,3R,5S)-5-(5-(5-((R)-2-(2,5-difluorophenyl)pyrrolidin-1-yl)pyrazolo[1,5-a]pyrimidin-3-yl)-4H-1,2,4-triazol-3-yl)cyclohexane-1,2,3,5-tetraol] |
